Test results taken from patent US6337399B1, “Processes for producing 7-isoindolinequinolonecarboxylic derivatives and intermediates therefor, salts of 7-isoindolinequinolonecarboxylic acids, hydrates thereof, and composition containing the same as active ingredient” (priority 1997, dated 2002).
Read-outs that look alike come from different tables or passages of the source.

Tests used:
[1] = Solubility of each salt of T-3811 in distilled water; type: physicochemical; conditions: for pH: pH given beside the solubility of each salt in distilled water; for solubility at 3 h: thermodynamic from solid; for solubility at a physiologically acceptable pH: compared with the other salts of T-3811, in words
Procedure: This sample solution is exposed to ultrasonic wave irradiation 5 (SOLID STATE 1,200, Cho-onpa Kogyo) in cold water for 3 hours and then filtered through a filter with a pore size of 0.45-μm (MILLEX-HV13, MILLIPORE).

[2] = Solubility of T-3811 in the vicinity of neutral; type: physicochemical; conditions: in words
[3] = tested on: Gram-positive and Gram-negative bacteria; conditions: background statement, in words; cited from earlier work
[4] = Stability against humidity; type: physicochemical; conditions: in words
[5] = about 50 mg salt in 2 ml distilled water, ultrasonic wave irradiation in cold water 3 hours, 0.45-μm filtrate, T-3811 content by liquid chromatography, read-out: Solubility

| Compound | pH [1] | solubility at 3 h [1, 5] | other results |
| --- | --- | --- | --- |
| C[C@H]1NCc2cc(-c3ccc4c(=O)c(C(=O)O)cn(C5CC5)c4c3OC(F)F)ccc21.O=P(O)(O)O [Phosphate, (R)-1-cyclopropyl-8-difluoromethoxy-7-(1-methyl-2,3-dihydro-1H-5-isoindolyl)-4-oxo-1,4-dihydro-3-quinoline-carboxylic acid phosphate] | 3.29 | 8520 µg/mL |  |
| CS(=O)(=O)O.C[C@H]1NCc2cc(-c3ccc4c(=O)c(C(=O)O)cn(C5CC5)c4c3OC(F)F)ccc21 [Methanesulfonate, (R)-1-cyclopropyl-8-difluoromethoxy-7-(1-methyl-2,3-dihydro-1H-5-isoindolyl)-4-oxo-1,4-dihydro-3-quinolinecarboxylic acid methanesulfonate] | 3.66 | 16500 µg/mL | solubility at a physiologically acceptable pH ([1]; listed as methanesulfonate of T-3811, methanesulfonate): much higher; solubility at a physiologically acceptable pH ([1]; listed as t-3811 methanesulfonate, methanesulfonate): remarkably high |
| C[C@H]1NCc2cc(-c3ccc4c(=O)c(C(=O)O)cn(C5CC5)c4c3OC(F)F)ccc21.O=S(=O)(O)O [Sulfate, (R)-1-cyclopropyl-8-difluoromethoxy-7-(1-methyl-2,3-dihydro-1H-5-isoindolyl)-4-oxo-1,4-dihydro-3-quinolinecarboxylic acid sulfate] | 3.46 | 1170 µg/mL |  |
| C[C@H]1NCc2cc(-c3ccc4c(=O)c(C(=O)O)cn(C5CC5)c4c3OC(F)F)ccc21 [Example T-3811, (R)-1-cyclopropyl-8-difluoromethoxy-7-(1-methyl-2,3-dihydro-1H-5-isoindolyl)-4-oxo-1,4-dihydro-3-quinoline-carboxylic acid] |  |  | solubility in the vicinity of neutral [2]: low; activity against Gram-positive and Gram-negative bacteria [3]: excellent |
| CC(=O)O.C[C@H]1NCc2cc(-c3ccc4c(=O)c(C(=O)O)cn(C5CC5)c4c3OC(F)F)ccc21 [Acetate, (R)-1-cyclopropyl-8-difluoromethoxy-7-(1-methyl-2,3-dihydro-1H-5-isoindolyl)-4-oxo-1,4-dihydro-3-quinolinecarboxylic acid acetate] | 4.22 |  | solubility at 3 h ([1]; water): 6230 µg/mL |
| C[C@H]1NCc2cc(-c3ccc4c(=O)c(C(=O)[O-])cn(C5CC5)c4c3OC(F)F)ccc21.C[C@H]1NCc2cc(-c3ccc4c(=O)c(C(=O)[O-])cn(C5CC5)c4c3OC(F)F)ccc21.[Mg+2] [Magnesium salt, magnesium salt of (R)-1-cyclopropyl-8-difluoromethoxy-7-(1-methyl-2,3-dihydro-1H-5-isoindolyl)-4-oxo-1,4-dihydro-3-quinolinecarboxylic acid] | 7.58 |  | Solubility ([1]; about 50 mg salt in 2 ml distilled water, ultrasonic wave irradiation in cold water 3 hours, 0.45-μm filtrate, T-3811 content by liquid chromatography): 60 µg/mL |
| C[C@H]1NCc2cc(-c3ccc4c(=O)c(C(=O)O)cn(C5CC5)c4c3OC(F)F)ccc21.Cl [Hydrochloride, (R)-1-cyclopropyl-8-difluoromethoxy-7-(1-methyl-2,3-dihydro-1H-5-isoindolyl)-4-oxo-1,4-dihydro-3-quinolinecarboxylic acid hydrochloride] | 3.99 |  | solubility at 3 h ([1]; water): 5450 µg/mL |
| C[C@H]1NCc2cc(-c3ccc4c(=O)c(C(=O)[O-])cn(C5CC5)c4c3OC(F)F)ccc21.[Na+] [Sodium salt, sodium (R)-1-cyclopropyl-8-difluoromethoxy-7-(1-methyl-2,3-dihydro-1H-5-isoindolyl)-4-oxo-1,4-dihydro-3-quinolinecarboxylate] | 10.11 | 2340 µg/mL |  |
| CS(=O)(=O)O.C[C@H]1NCc2cc(-c3ccc4c(=O)c(C(=O)O)cn(C5CC5)c4c3OC(F)F)ccc21.O [T-3811 methanesulfonate hydrate, (R)-1-cyclopropyl-8-difluoromethoxy-7-(1-methyl-2,3-dihydro-1H-5-isoindolyl)-4-oxo-1,4-dihydro-3-quinolinecarboxylic acid methanesulfonate monohydrate] |  |  | stability against humidity [4]: good |
| C[C@H]1NCc2cc(-c3ccc4c(=O)c(C(=O)O)cn(C5CC5)c4c3OC(F)F)ccc21.O=C(O)CC(O)(CC(=O)O)C(=O)O [Citrate, (R)-1-cyclopropyl-8-difluoromethoxy-7-(1-methyl-2,3-dihydro-1H-5-isoindolyl)-4-oxo-1,4-dihydro-3-quinolinecarboxylic acid citrate] | 3.90 | 420 µg/mL |  |
| C[C@H](O)C(=O)O.C[C@H]1NCc2cc(-c3ccc4c(=O)c(C(=O)O)cn(C5CC5)c4c3OC(F)F)ccc21 [L-lactate, (R)-1-cyclopropyl-8-difluoromethoxy-7-(1-methyl-2,3-dihydro-1H-5-isoindolyl)-4-oxo-1,4-dihydro-3-quinolinecarboxylic acid L-lactate] | 4.40 | 1980 µg/mL |  |
